Measured values as given in ChEMBL document CHEMBL1201862, “PubChem BioAssay data set” (2004).
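How tested: cells in 96-well plates exposed to compound for 48 hours at five concentrations. GI50 marks 50% less growth.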 Activity calls are given as the source filed them. No stated cut-off is given here; in the data, active = GI50 up to about 1.1 µM and inactive = higher.

Assays:
Assay in all cases: growth of human tumour cells (NCI), 48 h
CCRF-CEM = test system: CCRF-CEM
HL-60 = test system: HL-60
HT-29 = test system: HT-29
IGROV-1 = test system: IGROV-1
K562 = test system: K562
M14 = test system: M14
MDA-MB-231 = test system: MDA-MB-231
MDA-MB-435 = test system: MDA-MB-435
NCI-H226 = test system: NCI-H226
NCI-H460 = test system: NCI-H460
OVCAR-3 = test system: OVCAR-3
OVCAR-4 = test system: OVCAR-4
RXF 393 = test system: RXF 393
SF-268 = test system: SF-268
SF-295 = test system: SF-295
SK-MEL-28 = test system: SK-MEL-28
SK-MEL-2 = test system: SK-MEL-2
U-251 = test system: U-251
UO-31 = test system: UO-31
LOX IMVI = test system: LOX IMVI

Cc1c(S(=O)(=O)c2ccccc2)c(N)n(Cc2ccccc2)c1C
GI50 (CCRF-CEM): > 100 µM (inactive)
GI50 (HL-60): > 100 µM (inactive)
GI50 (HT-29): > 100 µM (inactive)
GI50 (IGROV-1): > 100 µM (inactive)
GI50 (K562): > 100 µM (inactive)
GI50 (M14): 7.08 µM (inactive)
GI50 (MDA-MB-231): > 100 µM (inactive)
GI50 (MDA-MB-435): > 100 µM (inactive)
GI50 (NCI-H226): > 100 µM (inactive)
GI50 (NCI-H460): > 100 µM (inactive)
GI50 (OVCAR-3): 96.8 µM (inactive)
GI50 (OVCAR-4): 85.7 µM (inactive)
GI50 (RXF 393): 76.6 µM (inactive)
GI50 (SF-268): 80.5 µM (inactive)
GI50 (SF-295): > 100 µM (inactive)
GI50 (SK-MEL-28): > 100 µM (inactive)
GI50 (SK-MEL-2): > 100 µM (inactive)
GI50 (U-251): > 100 µM (inactive)
GI50 (UO-31): > 100 µM (inactive)

Nc1ccc(OCCCc2c(-c3ccccc3)[nH]c(N)nc2=O)cc1
GI50 (CCRF-CEM): 43 µM (inactive)
GI50 (HL-60): 86.9 µM (inactive)
GI50 (HT-29): < 0.01 µM (active)
GI50 (IGROV-1): 31.3 µM (inactive)
GI50 (K562): 74.5 µM (inactive)
GI50 (LOX IMVI): 31 µM (inactive)
GI50 (M14): 32.5 µM (inactive)
GI50 (MDA-MB-231): 29.9 µM (inactive)
GI50 (MDA-MB-435): 49.7 µM (inactive)
GI50 (NCI-H226): 31 µM (inactive)
GI50 (NCI-H460): 24.6 µM (inactive)
GI50 (OVCAR-3): 25.2 µM (inactive)
GI50 (OVCAR-4): 31.6 µM (inactive)
GI50 (RXF 393): 63.8 µM (inactive)
GI50 (SF-268): > 100 µM (inactive)
GI50 (SF-295): 34.8 µM (inactive)
GI50 (SK-MEL-28): 27.5 µM (inactive)
GI50 (U-251): 69.5 µM (inactive)
GI50 (UO-31): 26 µM (inactive)

O=C(n1[nH]c(=O)n(-c2ccc([N+](=O)[O-])cc2)c1=O)C(Cl)(Cl)Cl
GI50 (HL-60): > 75 µM (inactive)
GI50 (HT-29): > 75 µM (inactive)
GI50 (IGROV-1): > 75 µM (inactive)
GI50 (K562): > 75 µM (inactive)
GI50 (LOX IMVI): > 75 µM (inactive)
GI50 (M14): > 75 µM (inactive)
GI50 (MDA-MB-231): > 75 µM (inactive)
GI50 (MDA-MB-435): > 75 µM (inactive)
GI50 (NCI-H226): > 75 µM (inactive)
GI50 (NCI-H460): > 75 µM (inactive)
GI50 (OVCAR-3): > 75 µM (inactive)
GI50 (OVCAR-4): > 75 µM (inactive)
GI50 (RXF 393): > 75 µM (inactive)
GI50 (SF-268): > 75 µM (inactive)
GI50 (SF-295): > 75 µM (inactive)
GI50 (SK-MEL-28): > 75 µM (inactive)
GI50 (SK-MEL-2): > 75 µM (inactive)
GI50 (U-251): > 75 µM (inactive)
GI50 (UO-31): > 75 µM (inactive)

CC1(C)CC2(C)OC(=N)C1(C#N)C2(C#N)C#N (stereo unspecified)
GI50 (HL-60): 2.98 µM (inactive)
GI50 (HT-29): 2.77 µM (inactive)
GI50 (IGROV-1): 15 µM (inactive)
GI50 (K562): 6.93 µM (inactive)
GI50 (LOX IMVI): 1.68 µM (inactive)
GI50 (M14): 11.6 µM (inactive)
GI50 (MDA-MB-231): 8.83 µM (inactive)
GI50 (MDA-MB-435): 11.9 µM (inactive)
GI50 (NCI-H226): > 10 µM (inactive)
GI50 (RXF 393): 11.6 µM (inactive)
GI50 (SF-268): 15.6 µM (inactive)
GI50 (SF-295): 16.3 µM (inactive)
GI50 (SK-MEL-2): 17.4 µM (inactive)
GI50 (U-251): 13.6 µM (inactive)
GI50 (UO-31): 4.26 µM (inactive)

Cn1c(=O)oc2cc(C(=O)CSC(=S)N3CCCCCC3)ccc21
GI50 (CCRF-CEM): 75.5 µM (inactive)
GI50 (HL-60): 51.8 µM (inactive)
GI50 (HT-29): 18.7 µM (inactive)
GI50 (IGROV-1): > 100 µM (inactive)
GI50 (K562): 57.1 µM (inactive)
GI50 (M14): > 100 µM (inactive)
GI50 (MDA-MB-231): > 100 µM (inactive)
GI50 (MDA-MB-435): > 100 µM (inactive)
GI50 (NCI-H226): > 100 µM (inactive)
GI50 (NCI-H460): 52.7 µM (inactive)
GI50 (OVCAR-3): > 100 µM (inactive)
GI50 (OVCAR-4): > 100 µM (inactive)
GI50 (RXF 393): > 100 µM (inactive)
GI50 (SF-268): > 100 µM (inactive)
GI50 (SF-295): 87.9 µM (inactive)
GI50 (SK-MEL-28): > 100 µM (inactive)
GI50 (SK-MEL-2): > 100 µM (inactive)
GI50 (U-251): 72.8 µM (inactive)
GI50 (UO-31): > 100 µM (inactive)

COc1ccc(-c2ccc(C(=O)C=P(c3ccccc3)(c3ccccc3)c3ccccc3)cc2)cc1
GI50 (CCRF-CEM): 5.52 µM (inactive)
GI50 (HL-60): 3.94 µM (inactive)
GI50 (HT-29): 6.05 µM (inactive)
GI50 (K562): 5 µM (inactive)
GI50 (LOX IMVI): 13.2 µM (inactive)
GI50 (M14): 11.6 µM (inactive)
GI50 (MDA-MB-231): 15.9 µM (inactive)
GI50 (MDA-MB-435): 12.2 µM (inactive)
GI50 (NCI-H226): 12.9 µM (inactive)
GI50 (NCI-H460): 8.13 µM (inactive)
GI50 (OVCAR-3): 3.41 µM (inactive)
GI50 (OVCAR-4): 7.96 µM (inactive)
GI50 (RXF 393): 13.2 µM (inactive)
GI50 (SF-268): 24.3 µM (inactive)
GI50 (SF-295): 10.4 µM (inactive)
GI50 (SK-MEL-28): 14.8 µM (inactive)
GI50 (U-251): 13 µM (inactive)
GI50 (UO-31): 3.13 µM (inactive)

CC(C)(C)OC(=O)N1CC(COS(C)(=O)=O)c2ccc(O)cc21 (stereo unspecified)
GI50 (CCRF-CEM): 0.455 µM (active)
GI50 (HL-60): 1.24 µM (inactive)
GI50 (HT-29): 3.21 µM (inactive)
GI50 (IGROV-1): 2.84 µM (inactive)
GI50 (K562): 2.3 µM (inactive)
GI50 (M14): 1.72 µM (inactive)
GI50 (MDA-MB-231): 2.77 µM (inactive)
GI50 (MDA-MB-435): 1.8 µM (inactive)
GI50 (NCI-H226): 1.92 µM (inactive)
GI50 (NCI-H460): 2.14 µM (inactive)
GI50 (OVCAR-3): 2.05 µM (inactive)
GI50 (OVCAR-4): 1.18 µM (inactive)
GI50 (RXF 393): 0.288 µM (active)
GI50 (SF-268): 1.72 µM (inactive)
GI50 (SF-295): 2.91 µM (inactive)
GI50 (SK-MEL-28): 2.14 µM (inactive)
GI50 (SK-MEL-2): 1.51 µM (inactive)
GI50 (U-251): 2.51 µM (inactive)
GI50 (UO-31): 1.97 µM (inactive)

O=c1[nH]nc(Cc2ccccc2)n1C1CC1
GI50 (CCRF-CEM): > 100 µM (inactive)
GI50 (HL-60): > 100 µM (inactive)
GI50 (HT-29): > 100 µM (inactive)
GI50 (IGROV-1): > 100 µM (inactive)
GI50 (K562): > 100 µM (inactive)
GI50 (LOX IMVI): > 100 µM (inactive)
GI50 (M14): > 100 µM (inactive)
GI50 (MDA-MB-231): > 100 µM (inactive)
GI50 (MDA-MB-435): > 100 µM (inactive)
GI50 (NCI-H226): > 100 µM (inactive)
GI50 (NCI-H460): > 100 µM (inactive)
GI50 (OVCAR-3): > 100 µM (inactive)
GI50 (OVCAR-4): > 100 µM (inactive)
GI50 (RXF 393): > 100 µM (inactive)
GI50 (SF-268): > 100 µM (inactive)
GI50 (SF-295): > 100 µM (inactive)
GI50 (SK-MEL-28): > 100 µM (inactive)
GI50 (U-251): > 100 µM (inactive)
GI50 (UO-31): 61.7 µM (inactive)

COc1c(Br)cc2c(c1OC)C(Br)CCC(Br)(Br)C2=O (stereo unspecified)
GI50 (HL-60): 0.787 µM (active)
GI50 (HT-29): 0.968 µM (active)
GI50 (IGROV-1): 0.482 µM (active)
GI50 (K562): 0.377 µM (active)
GI50 (LOX IMVI): 0.419 µM (active)
GI50 (M14): 0.228 µM (active)
GI50 (MDA-MB-231): 3.1 µM (inactive)
GI50 (MDA-MB-435): 0.434 µM (active)
GI50 (NCI-H226): 2.21 µM (inactive)
GI50 (NCI-H460): 2.75 µM (inactive)
GI50 (OVCAR-3): 1.14 µM (inactive)
GI50 (OVCAR-4): 1.65 µM (inactive)
GI50 (RXF 393): 0.706 µM (active)
GI50 (SF-268): 0.986 µM (active)
GI50 (SF-295): 2.52 µM (inactive)
GI50 (SK-MEL-28): 2.5 µM (inactive)
GI50 (SK-MEL-2): 1.1 µM (active)
GI50 (U-251): 2.18 µM (inactive)
GI50 (UO-31): 1.37 µM (inactive)

NCCCCN(CCCN)C(=O)OCc1ccccc1
GI50 (CCRF-CEM): > 100 µM (inactive)
GI50 (HL-60): > 100 µM (inactive)
GI50 (HT-29): > 100 µM (inactive)
GI50 (IGROV-1): > 100 µM (inactive)
GI50 (K562): > 100 µM (inactive)
GI50 (M14): > 100 µM (inactive)
GI50 (MDA-MB-231): > 100 µM (inactive)
GI50 (MDA-MB-435): > 100 µM (inactive)
GI50 (NCI-H226): > 100 µM (inactive)
GI50 (NCI-H460): > 100 µM (inactive)
GI50 (OVCAR-3): > 100 µM (inactive)
GI50 (OVCAR-4): > 100 µM (inactive)
GI50 (RXF 393): > 100 µM (inactive)
GI50 (SF-268): > 100 µM (inactive)
GI50 (SF-295): > 100 µM (inactive)
GI50 (SK-MEL-28): > 100 µM (inactive)
GI50 (SK-MEL-2): > 100 µM (inactive)
GI50 (U-251): > 100 µM (inactive)
GI50 (UO-31): > 100 µM (inactive)

C[n+]1c(-c2ccc(/C=N\NC(=O)c3ccc(C(=O)N/N=C/c4ccc(-c5cn6ccsc6[n+]5C)cc4)cc3)cc2)cn2ccsc21
GI50 (CCRF-CEM): 25.4 µM (inactive)
GI50 (HL-60): 16.5 µM (inactive)
GI50 (HT-29): 15.8 µM (inactive)
GI50 (IGROV-1): 20 µM (inactive)
GI50 (K562): 14 µM (inactive)
GI50 (M14): 17.8 µM (inactive)
GI50 (MDA-MB-231): 21.4 µM (inactive)
GI50 (MDA-MB-435): 15.8 µM (inactive)
GI50 (NCI-H226): 16.9 µM (inactive)
GI50 (NCI-H460): 19.4 µM (inactive)
GI50 (OVCAR-3): 11.6 µM (inactive)
GI50 (OVCAR-4): 28.8 µM (inactive)
GI50 (RXF 393): 22.8 µM (inactive)
GI50 (SK-MEL-2): 30.8 µM (inactive)
GI50 (U-251): 25.6 µM (inactive)
GI50 (UO-31): 15.2 µM (inactive)
